# Source: US6159705A, “Recombinant yeast cells for identifying receptor effectors” (Cadus Pharmaceutical Corporation, priority 1997, dated 2000)
# Where two headings read alike, the source gives them in different places. Where no end group is shown, it is not given here.
# Experiments:
# [1] = tested on: CY6571 yeast growth (HIS3 gene product); experiment: Elimination of LIRMA growth, strain CY6571 (FPRL-1); type: cell-based, S. cerevisiae; conditions: CY6571, selective media
# Experimental: (§1) It was determined that the yeast growth on selective media that resulted from LIRMA was eliminated by the additional of 2.5 millimolar concentrations of 3-aminotriazole (AT). AT is an inhibitor of the HIS3 gene product that serves to reduce background growth. Therefore, selection protocols aimed at the identification of surrogate ligands for the FPRL-1 receptor were carried out at this concentration of AT.
# [2] = tested on: CY7467 yeast growth (HIS3 gene product); experiment: Elimination of LIRMA growth, strain CY7467 (thrombin receptor); type: cell-based, S. cerevisiae; conditions: CY7467, selective media
# Experimental: as §1, with “addition” for “additional”, “novel peptide” for “surrogate”, “human thrombin” for “FPRL-1”
# [3] = tested on: human orphan receptor FPRL-1; experiment: Growth on -Leu-Ura-His + 2.5 mM AT, yeast expressing FPRL-1; type: cell-based; conditions: yeast bearing FPRL-1-encoding plasmid (CY6571), plasmids A1 and A3-A10
# Text: The yeast strain CY1141 (MATalpha far1*1441 tbt1-1 fus1-HIS3 can 1 ste14::trp1:;LYS2 ste3*1156 gpa1(41)-Galphai2 lys2 ura3 leu2 trp1 his3) was used in the experiments that follow. CY1141 contains a pheromone inducible HIS3 gene, fus1-HIS3 integrated at the FUS1 locus and a hybrid gene encoding the first 41 amino acids of GPA1 (yeast G alpha) fused to sequence encoding human G alphai2 (lacking codons encoding the N-terminal 33 amino acids) replacing GPA1 at its chromosomal locus. The yeast STE14 gene is disrupted to lower the basal level of signaling through the pheromone response pathway. The yeast a-factor receptor gene, STE3, is deleted. CY1141 was transformed with Cadus 2311 to yield CY6571, a strain expressing the human orphan receptor, FPRL-1.
# It was determined that the yeast growth on selective media that resulted from LIRMA was eliminated by the additional of 2.5 millimolar concentrations of 3-aminotriazole (AT). AT is an inhibitor of the HIS3 gene product that serves to reduce background growth. […]
# CY6571 was inoculated to 10 mls of standard synthetic media (SD) lacking leucine (-Leu) and incubated overnight at 30° C. […] The OD600 of each cell suspension was determined and crude plasmid isolations were done on 8-16 OD units of cells for each pool. […]
# FPRL-1 receptor = target: T1, FPRL-1 receptor (Homo sapiens, UniProt P25090)
# T1 sequence (P25090 1-351): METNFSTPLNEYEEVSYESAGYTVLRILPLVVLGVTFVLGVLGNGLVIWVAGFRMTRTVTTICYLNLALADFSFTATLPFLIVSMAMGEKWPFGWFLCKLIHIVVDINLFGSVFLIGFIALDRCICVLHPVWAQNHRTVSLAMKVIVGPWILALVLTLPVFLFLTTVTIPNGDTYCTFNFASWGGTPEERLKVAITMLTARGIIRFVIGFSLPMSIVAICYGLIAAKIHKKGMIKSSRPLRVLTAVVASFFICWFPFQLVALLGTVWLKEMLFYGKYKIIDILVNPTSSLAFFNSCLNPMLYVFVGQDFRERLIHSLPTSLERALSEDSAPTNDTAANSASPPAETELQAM
# Experimental: For verificatiin of pheromone pathway activation and quantification of the stimulation, the activity of the fus1 promoter was determined colorimetrically using a fus1-lacZ fusion in a parallel set of test strains. CY1141, described above, was used as the recipient strain for these experiments. […] Four strains (bearing the identical plasmids) were grown overnight in minimal media lacking leucine, uracil, and tryptophan, pH8.6. The overnight cultures were used to inoculate -Leu -Ura -Trp pH6.8 media and these new cultures were grown for approximately 4.5-5 hours to an OD600 of less than 0.4.
# human thrombin receptor = experiment: Growth on -Leu-Ura-His + 2.5 mM AT, yeast expressing thrombin receptor; type: cell-based; conditions: yeast bearing thrombin receptor plasmid (CY7467)
# Text: The amplified product was purified by gel electrophoresis, restricted with NcoI and BamHI and ligated to NcoI and BamHI-cut CADUS 1871, a PGK promoter-driven expression vector, to yield CADUS 2260. Cloning into CADUS 1871 introduces a novel stop codon preceded by the triplet GlySerVal after the authentic carboxy terminal codon of the human thrombin receptor (threonine). In addition, an invertase signal sequence is fused to the authentic amino terminus of the receptor.
# The yeast strain CY1141 (MATalpha far1*1442 tbt1-1 fus1-HIS3 can1 ste14::trp1::LYS2 ste3* 1156 gpal(41)-Galphai2 lys2 ura3 leu2 trp1 his3) was transformed with CADUS 2260 to yield strain CY7467, expressing the human thrombin receptor. CY7467 was inoculated to 10 mls of standard synthetic media (SD) lacking leucine (-Leu) and incubated overnight at 30 C. […] The OD600 of each cell suspension was determined and crude plasmid isolations were done on 8-16 OD units of cells for each pool. […]
# Strain CY7467 was transformed with […] of each plasmid pool by electroporation. […] The cells from each of these plates were scraped into 5 mls of H2 O, the OD600 of the cell suspensions were determined and crude plasmid isolations were done on 8-16 OD units of yeast cells. […]
molecule,measurement,setting,value
Nc1nc[nH]n1 [3-aminotriazole],concentration at which LIRMA growth was eliminated,[1],2.5 millimolar
same,concentration at which LIRMA growth was eliminated,[2],2.5 millimolar
SLLWLTCRPWEAM [peptide A1],growth advantage on media lacking histidine,[3],conferred a growth advantage
same,β-galactosidase activity,FPRL-1 receptor; R+ L+ (CY1141/CADUS 2311/peptide A1/CADUS 1584),28 units
same,β-galactosidase activity,FPRL-1 receptor; R- L+ (CY1141/CADUS 1289/peptide A1/CADUS 1584),3.5 units
same,stimulation over background levels of β-galactosidase,FPRL-1 receptor; yeast cy1141,8 fold
"VCPARYVLPGPVL [SEQ ID NO:45, peptide from random library, conferring growth via human thrombin receptor]",growth advantage on media lacking histidine,human thrombin receptor,conferred a growth advantage
